Earlier results on one molecule are cited in publication PMC12715049 (Journal of Molecular Medicine (Berlin, Germany), 2025).

For this series, the system named is mHTT aggregates. The following applies: read-out: IC50, binding to mHTT aggregates; radio-binding assays.

`COc1ccc(COc2ccc3oc(-c4ccc(=O)n(C)n4)nc3c2)nc1` [CHDI-180R]: the IC50 (usually the point on the concentration scale where inhibition reaches its midpoint) was 1.3 ± 1 nM.
